Data: PMC5622171 (Nature Communications, 2017)

Experiments:
Assay in all cases: KINOMEscan kinase profiling
Format in all cases: binding
RIPK5 = target: T1, RIPK5 (Homo sapiens, UniProt Q6XUX3); settings: read-out: %Inhibition by 10 μM SPA70
T1 construct: purchased DiscoverX (Ambit Biosciences) KINOMEscan
Experimental: (§1) Kinase inhibition profiling assays. The kinase inhibition profiling assay (KINOMEscan) was performed by Ambit Biosciences, now part of DiscoveryX (Fremont, CA) in accordance with the […]
(§2) published protocol20, 21. […] If the inhibition of a kinase was greater […]
(§3) dilutions) starting from 30 µM.

PIM3 = target: T2, PIM3 (Homo sapiens, UniProt Q86V86); settings: read-out: %Inhibition by 10 μM SPA70
T2 construct: purchased DiscoverX (Ambit Biosciences) KINOMEscan
Experimental: as §1, §2, §3

EPHA2 = target: T3, EPHA2 (Homo sapiens, UniProt P29317); settings: read-out: %Inhibition by 10 μM SPA70
T3 construct: purchased DiscoverX (Ambit Biosciences) KINOMEscan
Experimental: as §1, §2, §3

YSK1 = target: T4, YSK1 (Homo sapiens, UniProt O00506); settings: read-out: %Inhibition by 10 μM SPA70
T4 construct: purchased DiscoverX (Ambit Biosciences) KINOMEscan
Experimental: as §1, §2, §3

IRAK1 = target: T5, IRAK1 (Homo sapiens, UniProt P51617); settings: read-out: %Inhibition by 10 μM SPA70
T5 construct: purchased DiscoverX (Ambit Biosciences) KINOMEscan
Experimental: as §1, §2, §3

PHKG2 = target: T6, PHKG2 (Homo sapiens, UniProt P15735); settings: read-out: %Inhibition by 10 μM SPA70
T6 construct: purchased DiscoverX (Ambit Biosciences) KINOMEscan
Experimental: as §1, §2, §3

LATS2 = target: T7, LATS2 (Homo sapiens, UniProt Q9NRM7)
T7 construct: purchased DiscoverX (Ambit Biosciences) KINOMEscan
Experimental: as §1, §2, §3

ERK3 = target: T8, ERK3 (Homo sapiens, UniProt Q16659); settings: read-out: %Inhibition by 10 μM SPA70
T8 construct: purchased DiscoverX (Ambit Biosciences) KINOMEscan
Experimental: as §1, §2, §3

SGK3 = target: T9, SGK3 (Homo sapiens, UniProt Q96BR1); settings: read-out: %Inhibition by 10 μM SPA70
T9 construct: purchased DiscoverX (Ambit Biosciences) KINOMEscan
Experimental: as §1, §2, §3

[1] = target: T10, RSK4(Kin.Dom.1-N-terminal) (Homo sapiens, UniProt Q9UK32)
T10 construct: RSK4(Kin.Dom.1-N-terminal); purchased DiscoverX (Ambit Biosciences) KINOMEscan
Experimental: as §1, §2, §3

SRMS = target: T11, SRMS (Homo sapiens, UniProt Q9H3Y6); settings: read-out: %Inhibition by 10 μM SPA70
T11 construct: purchased DiscoverX (Ambit Biosciences) KINOMEscan
Experimental: as §1, §2, §3

NEK6 = target: T12, NEK6 (Homo sapiens, UniProt Q9HC98); settings: read-out: %Inhibition by 10 μM SPA70
T12 construct: purchased DiscoverX (Ambit Biosciences) KINOMEscan
Experimental: as §1, §2, §3

EIF2AK1 = target: T13, EIF2AK1 (Homo sapiens, UniProt Q9BQI3); settings: read-out: %Inhibition by 10 μM SPA70
T13 construct: purchased DiscoverX (Ambit Biosciences) KINOMEscan
Experimental: as §1, §2, §3

PKAC-beta = target: T14, PKAC-beta (Homo sapiens, UniProt P22694)
T14 construct: purchased DiscoverX (Ambit Biosciences) KINOMEscan
Experimental: as §1, §2, §3

ABL2 = target: T15, ABL2 (Homo sapiens, UniProt P42684); settings: read-out: %Inhibition by 10 μM SPA70
T15 construct: purchased DiscoverX (Ambit Biosciences) KINOMEscan
Experimental: as §1, §2, §3

CDK9 = target: T16, CDK9 (Homo sapiens, UniProt P50750); settings: read-out: %Inhibition by 10 μM SPA70
T16 construct: purchased DiscoverX (Ambit Biosciences) KINOMEscan
Experimental: as §1, §2, §3

MST4 = target: T17, MST4 (Homo sapiens, UniProt Q9P289); settings: read-out: %Inhibition by 10 μM SPA70
T17 construct: purchased DiscoverX (Ambit Biosciences) KINOMEscan
Experimental: as §1, §2, §3

ASK1 = target: T18, ASK1 (Homo sapiens, UniProt Q99683); settings: read-out: %Inhibition by 10 μM SPA70
T18 construct: purchased DiscoverX (Ambit Biosciences) KINOMEscan
Experimental: as §1, §2, §3

TRPM6 = target: T19, TRPM6 (Homo sapiens, UniProt Q9BX84); settings: read-out: %Inhibition by 10 μM SPA70
T19 construct: purchased DiscoverX (Ambit Biosciences) KINOMEscan
Experimental: as §1, §2, §3

AXL = target: T20, AXL (Homo sapiens, UniProt P30530); settings: read-out: %Inhibition by 10 μM SPA70
T20 construct: purchased DiscoverX (Ambit Biosciences) KINOMEscan
Experimental: as §1, §2, §3

LKB1 = target: T21, LKB1 (Homo sapiens, UniProt Q15831); settings: read-out: %Inhibition by 10 μM SPA70
T21 construct: purchased DiscoverX (Ambit Biosciences) KINOMEscan
Experimental: as §1, §2, §3

CAMK1G = target: T22, CAMK1G (Homo sapiens, UniProt Q96NX5); settings: read-out: %Inhibition by 10 μM SPA70
T22 construct: purchased DiscoverX (Ambit Biosciences) KINOMEscan
Experimental: as §1, §2, §3

PKAC-alpha = target: T23, PKAC-alpha (Homo sapiens, UniProt P17612)
T23 construct: purchased DiscoverX (Ambit Biosciences) KINOMEscan
Experimental: as §1, §2, §3

PAK7 = target: T24, PAK7 (Homo sapiens, UniProt Q9P286); settings: read-out: %Inhibition by 10 μM SPA70
T24 construct: purchased DiscoverX (Ambit Biosciences) KINOMEscan
Experimental: as §1, §2, §3

CDC2L5 = target: T25, CDC2L5 (Homo sapiens, UniProt Q14004)
T25 construct: purchased DiscoverX (Ambit Biosciences) KINOMEscan
Experimental: as §1, §2, §3

MST1 = target: T26, MST1 (Homo sapiens, UniProt Q13043)
T26 construct: purchased DiscoverX (Ambit Biosciences) KINOMEscan
Experimental: as §1, §2, §3

PRKCQ = target: T27, PRKCQ (Homo sapiens, UniProt Q04759); settings: read-out: %Inhibition by 10 μM SPA70
T27 construct: purchased DiscoverX (Ambit Biosciences) KINOMEscan
Experimental: as §1, §2, §3

LIMK1 = target: T28, LIMK1 (Homo sapiens, UniProt P53667); settings: read-out: %Inhibition by 10 μM SPA70
T28 construct: purchased DiscoverX (Ambit Biosciences) KINOMEscan
Experimental: as §1, §2, §3

AMPK-alpha2 = target: T29, AMPK-alpha2 (Homo sapiens, UniProt P54646); settings: read-out: %Inhibition by 10 μM SPA70
T29 construct: purchased DiscoverX (Ambit Biosciences) KINOMEscan
Experimental: as §1, §2, §3

[2] = target: T30, RPS6KA4(Kin.Dom.2-C-terminal) (Homo sapiens, UniProt O75676); settings: read-out: %Inhibition by 10 μM SPA70
T30 construct: RPS6KA4(Kin.Dom.2-C-terminal); purchased DiscoverX (Ambit Biosciences) KINOMEscan
Experimental: as §1, §2, §3

MRCKB = target: T31, MRCKB (Homo sapiens, UniProt Q9Y5S2); settings: read-out: %Inhibition by 10 μM SPA70
T31 construct: purchased DiscoverX (Ambit Biosciences) KINOMEscan
Experimental: as §1, §2, §3

AKT2 = target: T32, AKT2 (Homo sapiens, UniProt P31751); settings: read-out: %Inhibition by 10 μM SPA70
T32 construct: purchased DiscoverX (Ambit Biosciences) KINOMEscan
Experimental: as §1, §2, §3

STK39 = target: T33, STK39 (Homo sapiens, UniProt Q9UEW8); settings: read-out: %Inhibition by 10 μM SPA70
T33 construct: purchased DiscoverX (Ambit Biosciences) KINOMEscan
Experimental: as §1, §2, §3

EPHB2 = target: T34, EPHB2 (Homo sapiens, UniProt P29323)
T34 construct: purchased DiscoverX (Ambit Biosciences) KINOMEscan
Experimental: as §1, §2, §3

NDR1 = target: T35, NDR1 (Homo sapiens, UniProt Q15208); settings: read-out: %Inhibition by 10 μM SPA70
T35 construct: purchased DiscoverX (Ambit Biosciences) KINOMEscan
Experimental: as §1, §2, §3

MEK3 = target: T36, MEK3 (Homo sapiens, UniProt P46734); settings: read-out: %Inhibition by 10 μM SPA70
T36 construct: purchased DiscoverX (Ambit Biosciences) KINOMEscan
Experimental: as §1, §2, §3

HCK = target: T37, HCK (Homo sapiens, UniProt P08631); settings: read-out: %Inhibition by 10 μM SPA70
T37 construct: purchased DiscoverX (Ambit Biosciences) KINOMEscan
Experimental: as §1, §2, §3

PLK2 = target: T38, PLK2 (Homo sapiens, UniProt Q9NYY3)
T38 construct: purchased DiscoverX (Ambit Biosciences) KINOMEscan
Experimental: as §1, §2, §3

GRK4 = target: T39, GRK4 (Homo sapiens, UniProt P32298); settings: read-out: %Inhibition by 10 μM SPA70
T39 construct: purchased DiscoverX (Ambit Biosciences) KINOMEscan
Experimental: as §1, §2, §3

MET = target: T40, MET (Homo sapiens, UniProt P08581)
T40 construct: purchased DiscoverX (Ambit Biosciences) KINOMEscan
Experimental: as §1, §2, §3

CHEK2 = target: T41, CHEK2 (Homo sapiens, UniProt O96017); settings: read-out: %Inhibition by 10 μM SPA70
T41 construct: purchased DiscoverX (Ambit Biosciences) KINOMEscan
Experimental: as §1, §2, §3

[3] = read-out: %Inhibition by 10 μM SPA70

T27 sequence (Q04759 whole entry): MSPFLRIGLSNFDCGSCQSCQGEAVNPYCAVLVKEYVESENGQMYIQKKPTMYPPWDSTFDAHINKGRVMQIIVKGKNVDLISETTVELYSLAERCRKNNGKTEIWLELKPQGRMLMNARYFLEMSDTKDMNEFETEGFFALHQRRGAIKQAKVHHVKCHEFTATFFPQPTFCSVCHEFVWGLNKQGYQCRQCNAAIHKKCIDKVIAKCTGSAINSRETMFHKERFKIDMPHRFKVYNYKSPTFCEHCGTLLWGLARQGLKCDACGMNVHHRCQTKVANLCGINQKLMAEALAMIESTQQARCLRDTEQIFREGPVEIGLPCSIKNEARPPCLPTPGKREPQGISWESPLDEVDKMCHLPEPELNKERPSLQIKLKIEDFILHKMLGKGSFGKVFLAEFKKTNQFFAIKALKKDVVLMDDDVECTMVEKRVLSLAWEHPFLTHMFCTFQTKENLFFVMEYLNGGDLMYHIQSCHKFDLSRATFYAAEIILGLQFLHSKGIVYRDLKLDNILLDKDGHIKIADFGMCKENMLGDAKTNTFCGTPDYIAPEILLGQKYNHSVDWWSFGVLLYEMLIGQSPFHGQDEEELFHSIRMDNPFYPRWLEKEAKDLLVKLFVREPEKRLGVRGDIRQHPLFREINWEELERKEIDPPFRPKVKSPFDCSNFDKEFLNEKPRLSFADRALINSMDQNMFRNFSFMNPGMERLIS
T26 sequence (Q13043 whole entry): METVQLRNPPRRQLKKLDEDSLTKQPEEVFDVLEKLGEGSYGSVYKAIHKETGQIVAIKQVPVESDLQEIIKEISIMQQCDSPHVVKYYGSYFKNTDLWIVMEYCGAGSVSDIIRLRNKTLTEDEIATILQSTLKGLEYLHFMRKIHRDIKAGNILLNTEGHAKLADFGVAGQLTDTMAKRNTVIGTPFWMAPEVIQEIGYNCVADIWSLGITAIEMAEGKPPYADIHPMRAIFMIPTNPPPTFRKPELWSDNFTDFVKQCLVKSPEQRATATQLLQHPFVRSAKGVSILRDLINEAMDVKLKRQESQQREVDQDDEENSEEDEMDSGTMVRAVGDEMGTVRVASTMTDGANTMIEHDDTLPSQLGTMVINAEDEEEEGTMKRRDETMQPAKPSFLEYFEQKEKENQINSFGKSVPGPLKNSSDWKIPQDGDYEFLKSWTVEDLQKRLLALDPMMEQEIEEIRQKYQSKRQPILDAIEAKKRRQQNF
T19 sequence (Q9BX84 whole entry): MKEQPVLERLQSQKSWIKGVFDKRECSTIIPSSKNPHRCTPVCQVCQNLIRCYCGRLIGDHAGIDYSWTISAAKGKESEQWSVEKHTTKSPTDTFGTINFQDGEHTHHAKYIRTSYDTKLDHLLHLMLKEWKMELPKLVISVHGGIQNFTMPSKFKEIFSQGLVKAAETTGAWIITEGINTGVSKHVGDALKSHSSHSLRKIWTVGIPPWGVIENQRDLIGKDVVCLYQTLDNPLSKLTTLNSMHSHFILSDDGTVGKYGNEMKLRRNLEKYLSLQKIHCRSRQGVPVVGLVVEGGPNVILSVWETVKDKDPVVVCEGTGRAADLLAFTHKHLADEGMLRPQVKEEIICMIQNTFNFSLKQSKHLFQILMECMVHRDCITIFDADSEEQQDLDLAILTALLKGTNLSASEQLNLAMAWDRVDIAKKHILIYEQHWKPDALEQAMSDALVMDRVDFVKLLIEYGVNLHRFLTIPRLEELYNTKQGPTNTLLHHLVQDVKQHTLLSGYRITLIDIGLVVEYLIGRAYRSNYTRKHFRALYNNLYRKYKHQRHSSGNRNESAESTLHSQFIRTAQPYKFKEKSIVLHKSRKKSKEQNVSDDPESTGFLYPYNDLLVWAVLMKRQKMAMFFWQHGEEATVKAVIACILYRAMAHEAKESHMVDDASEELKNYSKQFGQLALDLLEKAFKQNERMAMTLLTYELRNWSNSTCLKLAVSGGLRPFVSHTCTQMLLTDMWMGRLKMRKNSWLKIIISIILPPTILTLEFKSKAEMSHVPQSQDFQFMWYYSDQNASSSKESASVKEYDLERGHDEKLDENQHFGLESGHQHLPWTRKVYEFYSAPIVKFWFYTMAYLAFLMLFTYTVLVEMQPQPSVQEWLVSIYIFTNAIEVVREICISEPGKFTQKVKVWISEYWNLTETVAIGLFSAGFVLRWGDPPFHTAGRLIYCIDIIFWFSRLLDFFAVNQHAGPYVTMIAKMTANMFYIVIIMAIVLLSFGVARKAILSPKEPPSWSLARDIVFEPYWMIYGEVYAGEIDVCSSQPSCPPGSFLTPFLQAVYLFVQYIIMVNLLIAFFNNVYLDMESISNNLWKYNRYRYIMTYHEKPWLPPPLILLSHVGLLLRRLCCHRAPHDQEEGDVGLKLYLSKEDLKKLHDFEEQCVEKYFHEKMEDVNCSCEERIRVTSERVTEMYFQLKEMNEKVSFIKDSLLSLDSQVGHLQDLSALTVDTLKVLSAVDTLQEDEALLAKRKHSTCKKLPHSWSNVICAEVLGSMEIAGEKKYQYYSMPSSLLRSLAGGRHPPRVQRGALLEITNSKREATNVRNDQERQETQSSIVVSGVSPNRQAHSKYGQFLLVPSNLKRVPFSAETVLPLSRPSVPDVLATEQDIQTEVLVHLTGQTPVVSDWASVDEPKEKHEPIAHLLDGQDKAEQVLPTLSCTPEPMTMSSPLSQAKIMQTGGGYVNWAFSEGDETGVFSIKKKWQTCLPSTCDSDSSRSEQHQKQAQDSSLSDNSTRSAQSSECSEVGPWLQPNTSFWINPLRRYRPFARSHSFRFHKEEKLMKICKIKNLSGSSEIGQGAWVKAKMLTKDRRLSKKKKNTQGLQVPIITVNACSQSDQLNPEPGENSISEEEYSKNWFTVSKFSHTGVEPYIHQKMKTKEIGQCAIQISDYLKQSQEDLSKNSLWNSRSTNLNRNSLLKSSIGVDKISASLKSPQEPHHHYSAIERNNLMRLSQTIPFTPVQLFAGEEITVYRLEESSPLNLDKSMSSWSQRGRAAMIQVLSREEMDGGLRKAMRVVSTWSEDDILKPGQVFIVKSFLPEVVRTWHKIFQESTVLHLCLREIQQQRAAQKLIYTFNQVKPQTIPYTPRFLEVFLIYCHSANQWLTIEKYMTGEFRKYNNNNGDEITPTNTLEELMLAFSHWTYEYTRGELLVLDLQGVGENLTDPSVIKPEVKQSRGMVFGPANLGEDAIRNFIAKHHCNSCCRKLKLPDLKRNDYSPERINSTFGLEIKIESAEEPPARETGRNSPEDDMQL
T25 sequence (Q14004 whole entry): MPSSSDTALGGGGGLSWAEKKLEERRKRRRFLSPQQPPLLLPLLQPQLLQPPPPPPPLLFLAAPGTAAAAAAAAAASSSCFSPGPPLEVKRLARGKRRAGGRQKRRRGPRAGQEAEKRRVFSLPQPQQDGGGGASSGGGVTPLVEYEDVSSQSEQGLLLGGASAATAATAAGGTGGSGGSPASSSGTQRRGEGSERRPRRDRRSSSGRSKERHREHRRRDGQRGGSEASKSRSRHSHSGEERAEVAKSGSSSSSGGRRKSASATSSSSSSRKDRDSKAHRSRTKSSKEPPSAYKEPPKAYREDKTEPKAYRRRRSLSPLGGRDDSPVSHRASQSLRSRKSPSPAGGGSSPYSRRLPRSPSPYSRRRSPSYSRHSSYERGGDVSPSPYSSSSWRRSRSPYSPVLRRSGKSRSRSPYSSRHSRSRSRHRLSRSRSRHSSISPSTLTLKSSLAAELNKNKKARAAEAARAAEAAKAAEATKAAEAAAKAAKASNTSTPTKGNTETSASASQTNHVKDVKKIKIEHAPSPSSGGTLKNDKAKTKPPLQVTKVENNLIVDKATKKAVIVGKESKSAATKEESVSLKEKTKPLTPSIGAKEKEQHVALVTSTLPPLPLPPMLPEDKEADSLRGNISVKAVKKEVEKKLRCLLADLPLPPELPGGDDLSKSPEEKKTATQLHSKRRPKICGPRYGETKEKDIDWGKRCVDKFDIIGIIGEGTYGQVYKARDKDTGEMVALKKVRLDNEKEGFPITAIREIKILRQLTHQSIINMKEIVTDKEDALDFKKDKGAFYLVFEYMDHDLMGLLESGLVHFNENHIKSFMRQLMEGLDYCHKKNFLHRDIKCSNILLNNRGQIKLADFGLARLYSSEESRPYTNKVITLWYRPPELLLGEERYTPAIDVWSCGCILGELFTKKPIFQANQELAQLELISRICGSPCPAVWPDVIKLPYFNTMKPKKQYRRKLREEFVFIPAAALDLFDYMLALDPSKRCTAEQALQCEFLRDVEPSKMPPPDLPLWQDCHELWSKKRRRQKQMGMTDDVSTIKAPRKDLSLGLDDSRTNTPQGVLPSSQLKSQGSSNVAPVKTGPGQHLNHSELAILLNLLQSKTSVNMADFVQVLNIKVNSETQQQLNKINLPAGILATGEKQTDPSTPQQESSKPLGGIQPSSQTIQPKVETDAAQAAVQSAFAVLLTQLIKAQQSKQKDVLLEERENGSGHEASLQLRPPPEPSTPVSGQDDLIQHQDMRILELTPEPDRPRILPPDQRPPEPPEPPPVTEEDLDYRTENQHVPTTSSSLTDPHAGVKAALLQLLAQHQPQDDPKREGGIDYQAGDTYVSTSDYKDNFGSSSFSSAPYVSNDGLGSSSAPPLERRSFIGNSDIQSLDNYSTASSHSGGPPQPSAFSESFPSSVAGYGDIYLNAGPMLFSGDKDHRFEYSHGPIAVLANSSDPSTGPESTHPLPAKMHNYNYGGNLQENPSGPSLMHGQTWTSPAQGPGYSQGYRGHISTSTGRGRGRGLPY
T36 sequence (P46734 whole entry): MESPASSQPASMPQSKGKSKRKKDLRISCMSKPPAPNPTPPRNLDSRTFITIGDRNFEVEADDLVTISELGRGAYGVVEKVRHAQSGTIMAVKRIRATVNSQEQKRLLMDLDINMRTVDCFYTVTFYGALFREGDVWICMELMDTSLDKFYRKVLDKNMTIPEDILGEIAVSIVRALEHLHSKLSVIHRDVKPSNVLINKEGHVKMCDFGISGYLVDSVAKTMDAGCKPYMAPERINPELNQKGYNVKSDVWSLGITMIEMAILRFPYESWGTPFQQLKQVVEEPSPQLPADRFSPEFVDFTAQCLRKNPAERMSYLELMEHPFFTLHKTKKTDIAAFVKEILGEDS

Structure (SMILES): COc1ccc(OC)c(-n2nnc(S(=O)(=O)c3ccc(C(C)(C)C)cc3)c2C)c1 [SPA70]
- inhibition at 10 µM (RIPK5): 24%
- inhibition at 10 µM (PIM3): 0%
- inhibition at 10 µM (EPHA2): 0%
- inhibition at 10 µM (YSK1): 2%
- inhibition at 10 µM (IRAK1): 0%
- inhibition at 10 µM (PHKG2): 0%
- %Inhibition by 10 μM SPA70 (LATS2): 0%
- inhibition at 10 µM (ERK3): 11%
- inhibition at 10 µM (SGK3): 0%
- %Inhibition by 10 μM SPA70 [1]: 4%
- inhibition at 10 µM (SRMS): 0%
- inhibition at 10 µM (NEK6): 0%
- inhibition at 10 µM (EIF2AK1): 0%
- %Inhibition by 10 μM SPA70 (PKAC-beta): not inhibited
- inhibition at 10 µM (PKAC-beta; [3]): 0%
- inhibition at 10 µM (ABL2): 0%
- inhibition at 10 µM (CDK9): 0%
- inhibition at 10 µM (MST4): 15%
- inhibition at 10 µM (ASK1): 4%
- inhibition at 10 µM (TRPM6): 31%
- inhibition at 10 µM (AXL): 0%
- inhibition at 10 µM (LKB1): 0%
- inhibition at 10 µM (CAMK1G): 25%
- %Inhibition by 10 μM SPA70 (PKAC-alpha): not inhibited
- inhibition at 10 µM (PKAC-alpha; [3]): 0%
- inhibition at 10 µM (PAK7): 26%
- %Inhibition by 10 μM SPA70 (CDC2L5): 0%
- %Inhibition by 10 μM SPA70 (MST1): 0%
- inhibition at 10 µM (PRKCQ): 4%
- inhibition at 10 µM (LIMK1): 0%
- inhibition at 10 µM (AMPK-alpha2): 9%
- inhibition at 10 µM [2]: 0%
- inhibition at 10 µM (MRCKB): 0%
- inhibition at 10 µM (AKT2): 0%
- inhibition at 10 µM (STK39): 7%
- %Inhibition by 10 μM SPA70 (EPHB2): 0%
- inhibition at 10 µM (NDR1): 0%
- inhibition at 10 µM (MEK3): 0%
- inhibition at 10 µM (HCK): 9%
- %Inhibition by 10 μM SPA70 (PLK2): 9%
- inhibition at 10 µM (GRK4): 0%
- %Inhibition by 10 μM SPA70 (MET): 0%
- inhibition at 10 µM (CHEK2): 23%
